Measured values as given in publication PMC5306062, “Pharmacology and toxicology of the novel investigational agent Cantrixil (TRX-E-002-1)” (Cancer Chemotherapy and Pharmacology, 2016).
Where “and” joins values, the source holds several entries; their conditions need not be identical. Identical values can stand only once. Like-named read-outs stand apart in the source and are kept apart here.

Key:
[1] = Rat 14-day pilot repeat-dose intraperitoneal toxicity study; assay type: in vivo; conditions: for deaths: 50 mg/kg/day; for AUC(0-t) / Cmax: plasma, Day 14, 5 mg/kg/day; for Cmax: read-out: plasma C max
Method: Clinical signs at all dose levels were reduced and/or liquid faeces, and staining of the fur of the forelimbs or around the eyes, nose and snout. […] Macroscopic pathology findings were limited to the 50 mg/kg/day group and included small testes, small thymus and small spleen.

CYP2B6 = assay: CYP induction in human hepatocytes; assay type: in vitro ADME; conditions: one of three donors
Description: (§1) Potential induction of human drug-metabolizing cytochrome P450 enzymes by TRX-E-002-1 was also investigated in human hepatocytes in vitro (VPT3079/2015). No evidence of CYP1A2 induction was observed.

CYP3A4 [2] = assay: CYP induction in human hepatocytes; assay type: in vitro ADME; conditions: one of three donors
Description: as §1

CYP1A2 [3] = assay: CYP induction in human hepatocytes; assay type: in vitro ADME
Description: as §1

[4] = GLP telemetry cardiovascular study, intraperitoneal injection; assay type: in vivo, beagle dogs
Method: However, at concentrations of 0.1-10 μM, the drug increased surface expression of the hERG single mutant (hERG-SM), identifying it as a potential blocker of hERG channel activity. […] Potential cardiovascular responses to intraperitoneal injection of TRX-E-002-1 were investigated in a GLP-compliant telemetry study in beagle dogs. Four male dogs received vehicle (20% SBECD) or TRX-E-002-1 (1, 10 or 30 mg/kg) on four separate occasions in a Latin Square design. Blood pressure, heart rate, ECG parameters and body temperatures were continuously recorded from 30 min before dosing until at least 24 h after each dose.

[5] = test system: disseminated ovarian cancer model; assay: Disseminated ovarian cancer model, intraperitoneal dosing; assay type: in vivo, mice
Description: In vivo, TRX-E-002-1, formulated in 20% SBECD, was active in a disseminated ovarian cancer model and a recurrent ovarian cancer model in which tumour recurrence is investigated following initial treatment of the OCSC2-inoculated mice with paclitaxel. In both models, TRX-E-002-1 inhibited tumour growth following once daily intraperitoneal administration.
The combination of TRX-E-002-1 and cisplatin was investigated in the murine model of disseminated ovarian cancer.

caspases 3/7 and 9 = assay: Caspase activity in OCSC2 cells; assay type: cell-based, human
Method: (§2) The role of caspases and intracellular signalling pathways in the anticancer activity of TRX-E-002-1 was investigated in OCSC2 ovarian cancer stem cells. […] TRX-E-002-1 also modulated phosphorylation of intracellular signalling molecules, with decreased levels of pERK (phosphorylated extracellular signal-regulated kinase) and increased levels of phosphorylated c-Jun (p–c-Jun). Activated p–c-Jun levels increased progressively over the 24-h incubation period in response to both concentrations of TRX-E-002-1 tested. […] Increased p–c-Jun and decreased pERK levels were observed following incubation of OCSC2 cells after only 2-h’ exposure, indicating these changes are one of the earliest effects of TRX-E-002-1 treatment.

[6] = Dog 14-day pilot toxicity study with toxicokinetics, intraperitoneal; conditions: both, beagle, dog, plasma
Method: For the dog 14-day pilot study, male and female beagle dogs were dosed once daily with intraperitoneal injections of vehicle (1:2 dilutions of 20% SBECD in 0.9% saline) or Cantrixil (10, 30 or 100 mg/kg) for 14 days. The doses were administered via an implanted catheter.

[7] = test system: OCSC2 ovarian cancer stem cells; assay: Western blots of caspase 2 and signalling molecules in OCSC2 cells; assay type: cell-based, human; conditions: Western blot
Method: as §2

[8] = test system: CYP2C9, CYP2C8, CYP2C19, CYP2B6, CYP3A4, CYP2D6, CYP2A6 and CYP1A2; assay: Inhibition of cytochrome P450 enzymes in human hepatic microsomes; assay type: in vitro ADME; conditions: liver microsomes, read-out: IC50 values, range over the CYP enzymes
Description: (§3) The potential for pharmacokinetic drug interactions resulting from inhibition of drug-metabolizing cytochrome P450 enzymes was investigated in human hepatic microsomes in vitro. TRX-E-002-1 inhibited multiple cytochrome P450 drug-metabolizing enzymes, including CYP2C9, CYP2C8, CYP2C19, CYP2B6, CYP3A4, CYP2D6, CYP2A6 and CYP1A2. […] In particular, the potential interaction between Cantrixil and paclitaxel, a CYP2C9 substrate frequently used in the treatment of ovarian cancer, needs to be considered.

CYP1A2 [9] = molecular target: T1, CYP1A2 (Homo sapiens, UniProt P05177); assay: Metabolism-dependent CYP inhibition in human hepatic microsomes; assay type: in vitro ADME
T1 construct: investigated in human hepatic microsomes in vitro; from tissue; host or cells: human hepatic microsomes
T1 sequence (P05177 whole entry): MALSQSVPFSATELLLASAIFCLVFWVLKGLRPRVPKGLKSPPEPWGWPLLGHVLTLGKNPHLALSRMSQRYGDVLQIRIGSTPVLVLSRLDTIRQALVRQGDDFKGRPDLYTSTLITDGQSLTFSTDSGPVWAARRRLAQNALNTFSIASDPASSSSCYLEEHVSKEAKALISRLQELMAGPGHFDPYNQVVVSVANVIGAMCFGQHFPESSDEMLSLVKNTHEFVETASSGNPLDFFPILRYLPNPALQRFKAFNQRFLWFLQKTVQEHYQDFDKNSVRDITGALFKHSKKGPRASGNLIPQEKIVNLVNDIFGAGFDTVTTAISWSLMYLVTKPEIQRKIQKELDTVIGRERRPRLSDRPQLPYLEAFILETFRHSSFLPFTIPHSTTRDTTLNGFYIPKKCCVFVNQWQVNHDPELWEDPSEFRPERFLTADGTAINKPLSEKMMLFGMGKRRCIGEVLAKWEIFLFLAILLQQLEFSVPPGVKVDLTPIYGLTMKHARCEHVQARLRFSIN
Description: as §3

CYP2C8 = molecular target: T2, CYP2C8 (Homo sapiens, UniProt P10632); assay: as above; assay type: in vitro ADME
T2 construct: investigated in human hepatic microsomes in vitro; from tissue; host or cells: human hepatic microsomes
T2 sequence (P10632 whole entry): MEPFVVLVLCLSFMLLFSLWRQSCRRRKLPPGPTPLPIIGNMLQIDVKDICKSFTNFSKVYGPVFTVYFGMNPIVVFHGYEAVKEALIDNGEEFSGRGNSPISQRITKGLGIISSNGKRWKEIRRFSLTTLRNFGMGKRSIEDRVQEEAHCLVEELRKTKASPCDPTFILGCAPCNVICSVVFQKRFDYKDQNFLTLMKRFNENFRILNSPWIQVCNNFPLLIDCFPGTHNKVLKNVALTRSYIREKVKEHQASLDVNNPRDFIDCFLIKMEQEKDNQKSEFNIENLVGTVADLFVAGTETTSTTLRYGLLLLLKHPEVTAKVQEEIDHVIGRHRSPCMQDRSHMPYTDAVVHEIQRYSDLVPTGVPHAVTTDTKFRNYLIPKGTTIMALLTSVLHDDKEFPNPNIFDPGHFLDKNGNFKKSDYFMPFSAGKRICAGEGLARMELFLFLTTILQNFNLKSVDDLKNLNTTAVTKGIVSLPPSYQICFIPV
Description: as §3

CYP3A4 [10] = molecular target: T3, CYP3A4 (Homo sapiens, UniProt P08684); assay: as above; assay type: in vitro ADME
T3 construct: investigated in human hepatic microsomes in vitro; from tissue; host or cells: human hepatic microsomes
T3 sequence (P08684 whole entry): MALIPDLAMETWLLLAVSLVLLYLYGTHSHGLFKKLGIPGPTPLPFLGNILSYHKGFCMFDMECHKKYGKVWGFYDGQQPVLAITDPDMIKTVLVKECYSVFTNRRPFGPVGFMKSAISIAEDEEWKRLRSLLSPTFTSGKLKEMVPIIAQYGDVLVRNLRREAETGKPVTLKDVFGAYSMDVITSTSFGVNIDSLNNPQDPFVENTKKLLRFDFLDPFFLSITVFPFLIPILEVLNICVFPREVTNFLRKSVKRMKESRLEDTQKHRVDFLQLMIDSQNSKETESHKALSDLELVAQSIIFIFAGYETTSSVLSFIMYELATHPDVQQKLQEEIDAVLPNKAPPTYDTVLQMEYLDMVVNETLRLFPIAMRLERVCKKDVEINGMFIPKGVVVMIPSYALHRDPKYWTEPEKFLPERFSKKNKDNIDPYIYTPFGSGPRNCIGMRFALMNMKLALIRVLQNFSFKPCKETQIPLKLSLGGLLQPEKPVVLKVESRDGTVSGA
Description: as §3

[11] = Second dog pharmacokinetic study, 10 mg/kg intraperitoneal, four dogs; assay type: in vivo, beagle dogs; conditions: 10 mg/kg i.p.
Method: In beagle dogs, plasma concentrations of unconjugated TRX-E-002-1 at early time points (1–4 h’ post-dose) were 76–93% of the total levels (parent + glucuronide). At 8 h, the plasma concentrations of the glucuronide metabolites were similar to those of parent drug. By 24 h’ post-dose, the concentrations of TRX-E-002-1-glucuronide in plasma and gastrointestinal tissues (except colon) were 2–12 times higher than those of the parent drug. The increased levels of TRX-E-0021-glucuronide relative to those of parent drug at 24 h post-dose may reflect slower elimination of the glucuronide metabolites.

[12] = female, Sprague-Dawley, rat, ip, females
[13] = male, Sprague-Dawley, rat, ip, males

COc1cc([C@@H]2COc3c(ccc(O)c3C)[C@@H]2c2ccc(O)cc2)cc(OC)c1O [TRX-E-002-1, (+) cis-4-(para-hydroxyphenyl)-7,4′-dihydroxy-3′,5′-dimethoxy-8-methylisoflavan]
deaths ([1]; females): 8/11 | deaths ([1]; males): 9/11 | NOAEL at 14 days ([1]; both sexes, Sprague-Dawley, rat, in vivo, ip): 5 mg/kg/day | AUC(0-t) [1, 12]: 665 ng·h/mL | Cmax [1, 12]: 257 ng/mL | doses with reduced body weight gain ([1]; females): ≥ 15 mg/kg/day | AUC(0-t) [1, 13]: 1870 ng·h/mL | Cmax [1, 13]: 909 ng/mL | doses with reduced body weight gain ([1]; males): ≥ 5 mg/kg/day | induction of CYP2B6 (CYP2B6): Equivocal evidence | induction of CYP3A4 (CYP3A4 [2]): Equivocal evidence | CYP1A2 induction (CYP1A2 [3]): No evidence | effect on QTc interval ([4]; 1, 10 or 30 mg/kg i.p., ECG telemetry): no effect | blood pressure and heart rate ([4]; 10 and/or 30 mg/kg i.p., not considered adverse): slight, transient increases | tumour growth ([5]; 100 mg/kg i.p. once daily in 20% SBECD for 13–14 days): significantly inhibited | tumour growth during the 16-day treatment period ([5]; TRX-E-002-1 100 mg/kg once daily, cisplatin 5 mg/kg once weekly, or both): significantly inhibited | tumour growth during the 5-week post-treatment period ([5]; after 16-day treatment, TRX-E-002-1 100 mg/kg once daily, cisplatin 5 mg/kg once weekly, or both): decreased | activity of caspases 3/7 and 9 (caspases 3/7 and 9): markedly increased | half-life ([6]; intraperitoneal): 2 to 2.7 h | Tmax ([6]; ip, 100 mg/kg): 0.5 to 2 h | levels of inactive caspase 2 ([7]; both concentrations): decreased | levels of phosphorylated c-Jun (p–c-Jun) ([7]; progressive over 24 h): increased | levels of pERK ([7]; seen after 2 h exposure): decreased | IC50 [8]: 1.5 µM to 75 µM and 0.612 µg/mL to 30.6 µg/mL | metabolism-dependent inhibition (CYP1A2 [9]): observed | metabolism-dependent inhibition (CYP2C8): observed | metabolism-dependent inhibition (CYP3A4 [10]): observed | TRX-E-002-1 levels by 72 h [11]: close to or below the limit of quantification | Kp at 24 h ([11]; beagle, dog, gastrointestinal tissues, ip, 24 h after dosing, read-out: concentrations in gastrointestinal tissues relative to plasma): ≥ 30
